The results in this text go back to patent US9951044B2, “Quinazoline derivatives and their use as DNA methyltransferase inhibitors” (PIERRE FABRE MEDICAMENT, priority 2013, dated 2018).

Molecules are shown by their SMILES. Like-named read-outs stand apart in the source and are kept apart here.

Assay [1] deals with T1, His-DNMT1 (182 kDa, human) (Homo sapiens, UniProt P26358).
T1 construct: His; made in house
The assay can be described thus: DNMT1 assay ([methyl-3H] SAM Flashplate). It is filed as biochemical. Particulars: for inhibition at 100 µM: read-out: DNMT1 (% of inhibition) 100 μM; for inhibition at 32 µM: read-out: DNMT1 (% of inhibition) 32 μM. On the procedure: His-DNMT1 (182 kDa, human) was cloned, expressed and purified as described in Halby et al. (ChemBioChem 2012, 13, 157-65). The reaction was performed in a 10 μL total reaction volume in low volume NBS™ 384-well microplates (Corning), containing the tested compound (up to 1% DMSO), 1 μM of a SAM/[methyl-^3H] SAM (3 TBq/mmol, PerkinElmer) mix in a ratio of 3-to-1 (isotopic dilution 1*:3), 0.3 μM of biotinylated hemimethylated DNA duplex (5′-GATmCGCmCGATGmCGmCGAATmCGmCGAT mCGATGmCGAT-3′ and BIOT-5′-[…] ATC-3′), and 90 nM of DNMT1 in methylation buffer (20 mM HEPES pH 7.2, 1 mM EDTA, 50 mM KCl, 25 μg/mL BSA). The reaction was incubated at 37° C. for 2 hours. 8 μL are then transferred into a streptavidin 96-well scintillant coated Flashplate™ (PerkinElmer) containing 190 μL of 20 μM SAH in 50 mM Tris-HCl pH 7.4. The Flashplate™ was agitated at room temperature for 1 hour, washed three times with 200 μL of 0.05% Tween®-20 in 50 mM Tris-HCl pH 7.4, and read in 200 μL of 50 mM Tris-HCl pH 7.4 on TopCount NXT (PerkinElmer).

The target in assay [2] is T2, human C-terminal DNMT3A (a.a. 623-908) (Homo sapiens, UniProt Q9Y6K1).
T2 construct: The human C-terminal DNMT3A (a.a. 623-908); made in house
T2 sequence (Q9Y6K1 627-912 limits assumed): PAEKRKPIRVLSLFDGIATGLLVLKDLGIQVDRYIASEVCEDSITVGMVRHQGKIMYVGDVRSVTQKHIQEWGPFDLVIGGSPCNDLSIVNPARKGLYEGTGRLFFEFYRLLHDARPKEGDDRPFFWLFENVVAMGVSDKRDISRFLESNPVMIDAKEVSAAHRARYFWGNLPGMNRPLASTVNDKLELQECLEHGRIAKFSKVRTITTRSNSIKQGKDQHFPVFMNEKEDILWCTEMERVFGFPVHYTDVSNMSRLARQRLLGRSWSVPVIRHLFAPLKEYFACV
The assay can be described thus: DNMT3A assay (restriction-based fluorescence). It is filed as biochemical. Particulars: for inhibition at 10 µM: read-out: DNMT3A (% of inhibition) 10 μM; for inhibition at 32 µM: read-out: DNMT3A (% of inhibition) 32 μM; for EC50: concentration range in triplicates; for inhibition at 20 µM: compound at 20 μM. An excerpt: DNMT3A enzyme inhibition was adapted from the restriction-based fluorescence assay protocol described in Ceccaldi et al. (ChemBioChem 2011, 12, 1337-45). Briefly, a 5′-labelled biotin oligonucleotide is hybridized to its complementary strand labelled with 6-carboxyfluorescein at the 3′-end into a 384 well microplate (black Optiplates; Perkin Elmer) pre-coated with avidin. The duplex contains a unique CpG site overlapping with a restriction site of a methylation sensitive restriction enzyme. The human C-terminal DNMT3A (a.a. 623-908), produced as described in Gros et al. (Nucleic Acids Research 2013 Aug. 25), was added in each well (200 ng/well) and mixed with the chemical compounds at desired concentrations and freshly prepared AdoMet (20 μM final concentration) to start the reaction in a total volume of 50 μL. After 1 hour incubation at 37° C. each well were washed three times with PBS, Tween-20 0.05%, NaCl (500 mM) and three more times with PBST. Specific fluorescent signals were detected with the methylation-sensitive restriction enzyme HpyCH4IV (NEB) as described and measured on a Perkin Elmer Envision detector. The percentage of inhibition is reported. The formula used to calculate the percentage of inhibition is [(X−Y)/X]×100, where X is the signal determined in the absence of the inhibitor and Y is the signal obtained in the presence of the inhibitor. The concentration at which 50% of efficacy of inhibition is observed (EC50) was determined by analysis of a concentration range of the tested compound in triplicates. The non-linear regression fittings with sigmoidal dose-response (variable slope) were performed with GraphPad Prism 4.03 (GraphPad Software).

T1 sequence (P26358 whole entry): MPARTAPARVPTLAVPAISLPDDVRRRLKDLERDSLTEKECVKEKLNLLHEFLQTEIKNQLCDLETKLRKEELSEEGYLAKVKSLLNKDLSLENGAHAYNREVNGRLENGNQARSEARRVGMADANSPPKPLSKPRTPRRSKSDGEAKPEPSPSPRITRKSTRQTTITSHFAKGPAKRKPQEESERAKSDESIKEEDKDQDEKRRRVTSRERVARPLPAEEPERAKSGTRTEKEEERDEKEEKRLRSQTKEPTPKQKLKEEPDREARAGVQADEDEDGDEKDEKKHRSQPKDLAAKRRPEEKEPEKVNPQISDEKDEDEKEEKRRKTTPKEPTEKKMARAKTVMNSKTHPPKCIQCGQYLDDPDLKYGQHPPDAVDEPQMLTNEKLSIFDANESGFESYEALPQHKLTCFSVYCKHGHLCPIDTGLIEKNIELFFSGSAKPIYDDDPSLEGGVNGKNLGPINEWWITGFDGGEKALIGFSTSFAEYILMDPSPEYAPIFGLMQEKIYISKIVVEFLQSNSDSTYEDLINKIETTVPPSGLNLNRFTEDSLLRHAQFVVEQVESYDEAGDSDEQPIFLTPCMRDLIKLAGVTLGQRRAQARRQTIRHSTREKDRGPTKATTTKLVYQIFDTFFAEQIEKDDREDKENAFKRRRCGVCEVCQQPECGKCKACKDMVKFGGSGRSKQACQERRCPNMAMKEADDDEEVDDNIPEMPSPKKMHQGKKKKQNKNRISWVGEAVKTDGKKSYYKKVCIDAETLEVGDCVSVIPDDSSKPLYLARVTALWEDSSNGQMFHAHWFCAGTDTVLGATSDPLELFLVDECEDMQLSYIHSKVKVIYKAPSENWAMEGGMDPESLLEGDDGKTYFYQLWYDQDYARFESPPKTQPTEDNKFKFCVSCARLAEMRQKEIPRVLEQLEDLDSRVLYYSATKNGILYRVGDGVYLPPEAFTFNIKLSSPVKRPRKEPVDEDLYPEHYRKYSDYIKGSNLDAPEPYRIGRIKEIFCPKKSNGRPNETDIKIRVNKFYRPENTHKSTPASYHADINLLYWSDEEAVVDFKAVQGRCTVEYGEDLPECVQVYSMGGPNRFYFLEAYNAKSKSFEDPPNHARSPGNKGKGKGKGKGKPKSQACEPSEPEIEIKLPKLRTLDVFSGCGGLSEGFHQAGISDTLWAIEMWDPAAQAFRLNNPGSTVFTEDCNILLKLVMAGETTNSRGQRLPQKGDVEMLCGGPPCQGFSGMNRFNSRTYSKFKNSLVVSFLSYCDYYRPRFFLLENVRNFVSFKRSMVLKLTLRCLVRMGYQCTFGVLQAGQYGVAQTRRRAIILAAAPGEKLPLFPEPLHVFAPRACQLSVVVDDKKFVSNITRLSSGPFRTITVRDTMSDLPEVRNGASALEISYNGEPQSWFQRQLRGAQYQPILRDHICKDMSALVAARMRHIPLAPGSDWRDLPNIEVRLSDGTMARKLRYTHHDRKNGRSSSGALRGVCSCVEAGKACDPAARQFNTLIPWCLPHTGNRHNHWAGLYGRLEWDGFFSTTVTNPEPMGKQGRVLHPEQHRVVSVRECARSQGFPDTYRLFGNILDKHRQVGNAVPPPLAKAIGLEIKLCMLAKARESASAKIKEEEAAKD

Usually inhibition stands for the change of the read-out against control, counted positive when it falls. The EC50 is the concentration that produces a half-maximal response. Higher therefore signals weaker potency. Consider `Clc1cccc(CCNc2ncnc3cc(OCC4CCN(CCNc5ccnc6ccccc56)CC4)ccc23)c1` [AA, 4-(2-(3-chlorophenyl)ethylamino)-7-((1-(2-(quinolin-4-ylamino)ethyl)piperidin-4-yl)methoxy)quinazoline], for which the inhibition at 100 µM in assay [1] (compound at 100 μM) amounted to 97%. Also, the inhibition at 10 µM in assay [2] (compound at 10 μM) was 82%. Besides, in assay [2] (compound at 32 μM), the inhibition at 32 µM stood at 91%. In addition, the EC50 in assay [2] stood at 2.7 µM.

Take `Clc1ccccc1CCNc1ncnc2cc(OCC3CCN(CCNc4ccnc5ccccc45)CC3)ccc12` [AB, 4-(2-(2-chlorophenyl)ethylamino)-7-((1-(2-(quinolin-4-ylamino)ethyl)piperidin-4-yl)methoxy)quinazoline]: the inhibition at 32 µM in assay [1] (compound at 32 μM) was 42%; in assay [2] (compound at 32 μM), 100%. Besides, the inhibition at 100 µM in assay [1] (compound at 100 μM) came out at 97%.

In the case of `Clc1ccc(CCNc2ncnc3cc(OCC4CCN(CCNc5ccnc6ccccc56)CC4)ccc23)cc1` [AC, 4-(2-(4-chlorophenyl)ethylamino)-7-((1-(2-(quinolin-4-ylamino)ethyl)piperidin-4-yl)methoxy)quinazoline], the inhibition at 32 µM in assay [1] (compound at 32 μM) amounted to 75%; in assay [2] (compound at 32 μM), 100%. Besides, in assay [1] (compound at 100 μM), the inhibition at 100 µM turned out to be 97%. Besides, in assay [2] (compound at 10 μM), the inhibition at 10 µM came to 88%. The same compound showed an EC50 in assay [2] of 1.9 µM.

On to `NS(=O)(=O)c1ccc(CCNc2ncnc3cc(OCC4CCN(CCNc5ccnc6ccccc56)CC4)ccc23)cc1` [AD, 4-(2-(4-sulfonamidophenyl)ethylamino)-7-((1-(2-(quinolin-4-ylamino)ethyl)piperidin-4-yl)methoxy)quinazoline], for which the inhibition at 32 µM in assay [1] (compound at 32 μM) stood at 59%; in assay [2] (compound at 32 μM) it was 93%. In addition, in assay [1] (compound at 100 μM), the inhibition at 100 µM is 100%.

As to `O=[N+]([O-])c1ccc(CCNc2ncnc3cc(OCC4CCN(CCNc5ccnc6ccccc56)CC4)ccc23)cc1` [AE, 4-(2-(4-nitrophenyl)ethylamino)-7-((1-(2-(quinolin-4-ylamino)ethyl)piperidin-4-yl)methoxy)quinazoline], the inhibition at 32 µM in assay [1] (compound at 32 μM) was 54%; in assay [2] (compound at 32 μM) it was 72%. The inhibition at 100 µM in assay [1] (compound at 100 μM) came out at 74%. The inhibition at 10 µM in assay [2] (compound at 10 μM) is 61%. Besides, the EC50 in assay [2] was 1.1 µM.

In the case of `CC(C)c1ccc(CCNc2ncnc3cc(OCC4CCN(CCNc5ccnc6ccccc56)CC4)ccc23)cc1` [AF, 4-(2-(4-isopropylphenyl)ethylamino)-7-((1-(2-(quinolin-4-ylamino)ethyl)piperidin-4-yl)methoxy)quinazoline], the inhibition at 10 µM in assay [2] (compound at 10 μM) is 53%. In addition, in assay [2] (compound at 32 μM), the inhibition at 32 µM is 83%.

In the case of `COc1ccc(CCNc2ncnc3cc(OCC4CCN(CCNc5ccnc6ccccc56)CC4)ccc23)cc1` [AG, 4-(2-(4-methoxyphenyl)ethylamino)-7-((1-(2-(quinolin-4-ylamino)ethyl)piperidin-4-yl)methoxy)quinazoline], the inhibition at 32 µM in assay [1] (compound at 32 μM) is 77%; in assay [2] (compound at 32 μM) it was 100%. Further, the inhibition at 100 µM in assay [1] (compound at 100 μM) came out at 59%. Also, the inhibition at 10 µM in assay [2] (compound at 10 μM) was determined as 82%.

Take `Nc1ccc(CCNc2ncnc3cc(OCC4CCN(CCNc5ccnc6ccccc56)CC4)ccc23)cc1` [AH, 4-(2-(4-aminophenyl)ethylamino)-7-((1-(2-(quinolin-4-ylamino)ethyl)piperidin-4-yl)methoxy)quinazoline]: the results for the inhibition at 32 µM in assay [1] (compound at 32 μM) and in assay [2] (compound at 32 μM) were 59% and 96%, respectively. The inhibition at 100 µM in assay [1] (compound at 100 μM) was 97%. The inhibition at 10 µM in assay [2] (compound at 10 μM) was 68%.

`c1ccc2c(NCCNc3ncnc4cc(OCC5CCN(CCNc6ccnc7ccccc67)CC5)ccc34)ccnc2c1` [AI]: the inhibition at 32 µM in assay [1] (compound at 32 μM) and in assay [2] (compound at 32 μM) was 99% throughout. For the same compound, the inhibition at 100 µM in assay [1] (compound at 100 μM) stood at 99%. Further, the inhibition at 10 µM in assay [2] (compound at 10 μM) was 86%. Further, the EC50 in assay [2] was determined as 1 µM.

For `c1ccc(NCCNc2ncnc3cc(OCC4CCN(CCNc5ccnc6ccccc56)CC4)ccc23)cc1` [AK, 4-(2-(phenylamino)ethylamino)-7-((1-(2-(quinolin-4-ylamino)ethyl)piperidin-4-yl)methoxy)quinazoline], the inhibition at 32 µM came out at 93% in assay [1] (compound at 32 μM) and 5% in assay [2] (compound at 32 μM). Further, the inhibition at 100 µM in assay [1] (compound at 100 μM) worked out at 93%. Besides, in assay [2] (compound at 10 μM), the inhibition at 10 µM worked out at 76%.

As for `c1ccc(CN2CCC(Nc3ncnc4cc(OCC5CCN(CCNc6ccnc7ccccc67)CC5)ccc34)CC2)cc1` [AL], the inhibition at 32 µM came out at 81% in assay [1] (compound at 32 μM) and 93% in assay [2] (compound at 32 μM). The inhibition at 100 µM in assay [1] (compound at 100 μM) was determined as 81%. Moreover, the inhibition at 10 µM in assay [2] (compound at 10 μM) was found to be 72%. This compound had an EC50 in assay [2] of 8 µM.

For the compound `Clc1ccc2c(NCCN3CCC(COc4ccc5c(NCCCc6ccccc6)ncnc5c4)CC3)ccnc2c1` [AO, 4-((3-phenylpropyl)amino)-7-((1-(2-(7-chloroquinolin-4-ylamino)ethyl)piperidin-4-yl)methoxy)quinazoline], the inhibition at 100 µM in assay [1] amounted to 79%. Moreover, in assay [2], the inhibition at 10 µM came out at 70% and the inhibition at 32 µM was 62%.

Regarding `COc1ccc2c(NCCN3CCC(COc4ccc5c(NCCCc6ccccc6)ncnc5c4)CC3)ccnc2c1` [AP, 4-((3-phenylpropyl)amino)-7-((1-(2-(7-methoxyquinolin-4-ylamino)ethyl)piperidin-4-yl)methoxy)quinazoline], the inhibition at 100 µM in assay [1] turned out to be 90%. In assay [2], the EC50 was 2.6 µM, the inhibition at 10 µM amounted to 70% and the inhibition at 32 µM amounted to 80%.

With `COc1cc2nccc(NCCN3CCC(COc4ccc5c(NCCCc6ccccc6)ncnc5c4)CC3)c2cc1OC` [AQ, 4-((3-phenylpropyl)amino)-7-((1-(2-(6,7-dimethoxyquinolin-4-ylamino)ethyl)piperidin-4-yl)methoxy)quinazoline], in assay [1], the inhibition at 32 µM was determined as 61% and the inhibition at 100 µM turned out to be 100%. Besides, in assay [2], the inhibition at 10 µM amounted to 95% and the inhibition at 32 µM worked out at 95%.

As for `CN(CCN1CCC(COc2ccc3c(NCCCc4ccccc4)ncnc3c2)CC1)c1ccnc2ccccc12` [AR, 4-((3-phenylpropyl)amino)-7-((1-(2-(methyl(quinolin-4-yl)amino)ethyl)piperidin-4-yl)methoxy)quinazoline], in assay [2], the EC50 stood at 4.7 µM, the inhibition at 10 µM worked out at 66% and the inhibition at 32 µM was determined as 66%.

With `c1ccc(CCCNc2ncnc3cc(OCC4CCN(CCNc5ccc6ncccc6c5)CC4)ccc23)cc1` [AS, 4-((3-phenylpropyl)amino)-7-((1-(2-(quinolin-6-ylamino)ethyl)piperidin-4-yl)methoxy)quinazoline], in assay [2], the inhibition at 10 µM worked out at 60% and the inhibition at 32 µM stood at 60%.

Regarding `Nc1ccc(NCCN2CCC(COc3ccc4c(NCCCc5ccccc5)ncnc4c3)CC2)cc1` [Compound AN], the inhibition at 32 µM in assay [2] (compound at 32 μM) came to 65%.

Compound `O=CN(CCCNc1ccnc2ccccc12)CCCOc1ccc2c(NCCCc3ccccc3)ncnc2c1` [Compound E, N-(3-((4-((3-phenylpropyl)amino)quinazolin-7-yl)oxy)propyl)-N-(3-(quinolin-4-ylamino)propyl)formamide] gave an inhibition at 20 µM in assay [2] of 27%. Moreover, the inhibition at 32 µM in assay [2] (compound at 32 μM) came out at 51%.

Regarding `COCn1ccc(NCCN2CCC(COc3ccc4c(NCCCc5ccccc5)ncnc4c3)CC2)nc1=O` [Compound K, 1-(methoxymethyl)-N^4-(2-(4-(((4-((3-phenylpropyl)amino)quinazolin-7-yl)oxy)methyl)piperidin-1-yl)ethyl)cytosine], the inhibition at 10 µM in assay [2] (compound at 10 μM) was 10%. For the same compound, in assay [2], the inhibition at 20 µM is 40%. For the same compound, in assay [2] (compound at 32 μM), the inhibition at 32 µM amounted to 44%.
